From the supplement of paper PMC6723410

Tested on: GUMC-403
Experiment: viability at highest tested concentration (max response) relative to DMSO (% of DMSO control); higher = less cytotoxic
Settings: library / dose series: MIPE library, 11-point 1:3 dilution, 48 h
In short: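 Viability at the highest tested concentration is given relative to vehicle control. For this, conditionally reprogrammed patient-derived GUMC-403 papilloma cells at 700/well in 1536-well plates were exposed to 23 nL of pinned compound for 48 h. Luminescence from CellTiter-Glo was read on a ViewLux and scaled between empty wells (0%) and vehicle wells (100%).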

Row | Structure (SMILES) | viability (top concentration 46.1 µM) | also measured
1 | Cc1ccccc1N1C(=O)c2cc([S+](N)(=O)[O-])c(Cl)cc2NC1C (configuration not stated) | 105 | 
2 | OC1=C(O)C2=C(\C=C/C(=O)O2)C=C1 | 110 | 
3 | CCOP(=O)(OCC)C(C)NC(=O)N(CCCl)N=O (configuration not stated) | 111 | 
4 | COc1cc2c(Oc3ccc4[nH]c(C)cc4c3F)ncnc2cc1OCCCN1CCCC1 | 64.4 | 
5 | CN(C)CCN(Cc1ccc(Cl)cc1)c1ccccn1.Cl | 97.6 | 
6 | CCOC(=O)N[C@@H]1CC[C@@H]2[C@@H](C1)C[C@H]1C(=O)O[C@H](C)[C@H]1[C@H]2/C=C/c1ccc(-c2cccc(F)c2)cn1 | 123 | 
7 | CC(C)N(CCNC(=O)CN1CCCC1=O)C(C)C | 103 | 
8 | COC(=O)c1ccc2c(c1)NC(=O)/C2=C(\Nc1ccc(N(C)C(=O)CN2CCN(C)CC2)cc1)c1ccccc1 | 112 | 
9 | COc1cccc2c1CCCC2CCCN1CCN(C2CCCCC2)CC1 (configuration not stated) | 112 | 
10 | C[C@H](O)[C@H]1[C@@H]2[C@H](C)C(=C(\N2C1=O)C(O)=O)/S[C@@H]3CN[C@H](CN[S+](N)([O-])=O)C3 | 120 | 
11 | O=[N+]([O-])c1cnc(Sc2nnc(O)n2-c2ccc3c(c2)OCCO3)s1 | 91.3 | 
12 | COc1ccc(C(=O)c2c(C)n(CCN3CCOCC3)c3ccccc23)cc1 | 122 | 
13 | Cc1ccnc2c1NC(=O)c1cccnc1N2C1CC1 | 138 | 
14 | Cc1ccc(-c2ncn(-c3ccc(Nc4nccc(-c5cccc(N6CCOCC6)c5)n4)cc3)n2)cn1 | 32 | 
15 | O=C1c2c(O)cc(O)cc2O[C@H](c2cc(O)c(O)c(O)c2)[C@H]1O | 115 | 
16 | O=C1Nc2cc(Br)ccc2/C1=C1/Nc2ccccc2/C1=N\O | 31.3 | 
17 | CSCC[C@@H](NC(=O)[C@@H](Cc1ccccc1)NC(=O)CNC(=O)CNC(=O)[C@@H](N)Cc1ccc(O)cc1)C(=O)O | 126 | 
18 | OC1=CC=C(C=C1)\C2=C\OC3=C(C=CC(=C3)O)C2=O | 133 | 
19 | CN(C)CCCC1(c2ccc(F)cc2)OCc2cc(C#N)ccc21 (configuration not stated) | 98.5 | 
20 | Nc1nc(OCc2ccccc2)c2nc[nH]c2n1 | 111 | 
21 | O=C(O)c1nn(Cc2ccc(Cl)cc2Cl)c2ccccc12 | 99.7 | 

Row | Structure (SMILES) | viability (top concentration 46.1 µM) | also measured
22 | CN1[C@@H]2CC(OC(=O)[C@@H](CO)c3ccccc3)C[C@H]1[C@H]1O[C@H]12 (some centres not stated) |  | viability (top concentration 27.2 µM): 131
23 | OC(c1cc(C(F)(F)F)nc2c(C(F)(F)F)cccc12)C1CCCCN1 (configuration not stated) | 97.9 | 
24 | CCOC(=O)[C@H](CCc1ccccc1)N[C@H]1CCc2ccccc2N(CC(=O)O)C1=O | 124 | 
25 | N[S+](=O)([O-])c1cc2c(cc1Cl)NC(C(Cl)Cl)N[S+]2(=O)[O-] (configuration not stated) | 98.6 | 
26 | C[C@]12Cc3cn[nH]c3C[C@@H]1CC[C@@H]1[C@@H]2CC[C@@]2(C)[C@H]1CC[C@]2(C)O | 108 | 
27 | CCc1nc(N)nc(N)c1-c1ccc(Cl)cc1 | 97.1 | 
28 | COc1ccccc1OCCNCC(O)COc1cccc2[nH]c3ccccc3c12 (configuration not stated) | 102 | 
29 | CC(C)[C@@H](N(CCCN)C(=O)C1=CC=C(C)C=C1)C/2=C(\CC3=CC=CC=C3)C(=O)C4=C(O2)C=C(Cl)C=C4 | 119 | 
30 | Cc1nc(C(=O)NCC(=O)O)c(O)c2ccc(Oc3ccccc3)cc12 | 132 | 
31 | CC(C)(C)NC(=O)[C@@H]1CN(Cc2cccnc2)CCN1C[C@@H](O)C[C@@H](Cc1ccccc1)C(=O)N[C@H]1c2ccccc2C[C@H]1O.O=S(=O)(O)O | 130 | 
32 | COc1cc(N2CCC(N3CCN(C)CC3)CC2)ccc1Nc1ncnc(Nc2ccccc2[S+](=O)([O-])C(C)C)n1 | 49.4 | 
33 | O=C(Nc1nc2cccc(-c3ccc(CN4CC[S+](=O)([O-])CC4)cc3)n2n1)C1CC1 | 40.4 | 
34 | CC(C)C(=O)Nc1ccc([N+](=O)[O-])c(C(F)(F)F)c1 | 85.7 | 
35 | CN(C)CCOc1ccc(/C(=C(/CCCl)c2ccccc2)c2ccccc2)cc1 | 104 | 
36 | CC(N[C@H]1CCCC[C@@H]1NC(=O)c1ccc(Cl)cc1)c1cccc2ccccc12 (some centres not stated) | 91.2 | 
37 | CC\1=C/C=C\C=[N]1[Pt](N)(Cl)Cl | 136 | 
38 | COc1cc(F)c(F)c(Nc2ccc(I)cc2F)c1N[S+](=O)([O-])C1(C[C@H](O)CO)CC1 | 101 | 
39 | C=CCO/N=C(/C[C@H]1O[C@@H]2O[C@]3(C)CC[C@H]4[C@H](C)CC[C@@H]([C@H]1C)[C@@]24OO3)[C@H]1O[C@@H]2O[C@]3(C)CC[C@H]4[C@H](C)CC[C@@H]([C@H]1C)[C@@]24OO3 | 92.1 | 
40 | C\C1=C\N([C@H]2C[C@H](N=[N+]=[N-])[C@@H](CO)O2)C(=O)NC1=O | 113 | 
41 | COc1cc(Oc2ccnc3cc(OC)c(OC)cc23)ccc1NC(=O)NC(C)c1nccs1 (configuration not stated) | 110 | 
42 | O=C(CN1C(=O)C2(CCCC2)NC[C@H]1c1cc(F)cc(F)c1)Nc1ccc2c(c1)C[C@@]1(C2)C(=O)Nc2ncccc21 | 148 | 

Row | Structure (SMILES) | viability (top concentration 46.1 µM) | also measured
43 | CC(C)OC1=CC=C2C(=C1)O\C=C(/C2=O)C3=CC=CC=C3 | 111 | 
44 | CNC1CCC(N(Cc2cccc(-c3ccncc3)c2)C(=O)c2sc3ccccc3c2Cl)CC1 (configuration not stated) | 110 | 
45 | O=C1N\2CCC3=C([NH]C4=C3C=CC=C4)C2=N/C5=CC=CC=C15 | 109 | 
46 | Cc1ccccc1C(=O)Nc1ccc(C(=O)N2CCCC(O)c3cc(Cl)ccc32)c(C)c1 (configuration not stated) | 108 | 
47 | Cc1cnn(C)c1C(=O)Nc1cc(Nc2ccc3c(/C=C/c4ccccn4)n[nH]c3c2)ccc1F | 125 | 
48 | O=C(CCc1ccc(O)cc1)c1c(O)cc(O)cc1O | 107 | 
49 | CC1(N2CCC(n3c([C@@H]4CCCNC4)nc4ccccc43)CC2)CCCCCCC1 | 115 | 
50 | NC1CCC(Nc2nc(Nc3ccc(C(=O)N4CCCCC4)cc3)c3ncn(-c4cccc(F)c4)c3n2)CC1 (configuration not stated) | 86 | 
51 | COC(=O)N[C@H](C(=O)N[C@@H](Cc1ccccc1)[C@@H](O)CN(Cc1ccc(-c2ccccn2)cc1)NC(=O)[C@@H](NC(=O)OC)C(C)(C)C)C(C)(C)C | 112 | 
52 | C[C@]12CCC(=O)C=C1CC[C@@H]1[C@@H]2CC[C@@]2(C)[C@H]1CC[C@]2(C)O |  | viability (top concentration 92.2 µM): 128
53 | COc1ccc2cc3[n+](cc2c1OC)CCc1cc2c(cc1-3)OCO2 | 99.7 | 
54 | OCCn1cc(-c2cnc3nnn(Cc4ccc5ncccc5c4)c3n2)cn1 | 106 | 
55 | Cc1cc(Nc2nc(N[C@@H](C)c3ccc(F)cc3)c(C#N)cc2F)n[nH]1 | 65.1 | 
56 | C[N+](C)(C)CC(=O)O.[Cl-] | 113 | 
57 | COc1cc(Nc2ncc(F)c(Nc3ccc4c(n3)NC(=O)C(C)(C)O4)n2)cc(OC)c1OC | 89.6 | 
58 | CC(C)c1onc(-c2c(Cl)cccc2Cl)c1COc1ccc(/C=C/c2cccc(C(=O)O)c2)c(Cl)c1 | 123 | 
59 | COc1cccc(N(C)C(=S)Oc2ccc3c(c2)CCCC3)n1 | 126 | 
60 | CN(C)c1nc(Cc2ccc(NC(=O)c3ccc4ccccc4c3)cc2)nc(Cl)c1CC(=O)O | 114 | 
61 | C/C(O)=C(\C#N)C(=O)Nc1ccc(C(F)(F)F)cc1 | 94.3 | 
62 | COc1ccc(/C=C/C(=O)Nc2ccccc2C(=O)O)cc1OC | 106 | 
63 | CCOC(=O)c1ccc(OC(=O)CCCCCNC(=N)N)cc1 | 138 | 

Row | Structure (SMILES) | viability (top concentration 46.1 µM) | also measured
64 | OCc1ccc(-c2nn(Cc3ccccc3)c3ccccc23)o1 | 94.3 | 
65 | Cc1ccc(O)c(C(CCN(C(C)C)C(C)C)c2ccccc2)c1.Cl (configuration not stated) | 125 | 
66 | CC(C)(C)Cn1c(N)nc2ccc(-c3[nH]c(C(C)(C)C)nc3-c3ccc(F)cc3)nc21 | 76.7 | 
67 | CC1(C)C(=O)N(CCN2CCC(C(=O)c3ccc(F)cc3)CC2)c2ccccc21 | 71.3 | 
68 | COc1ccc(C2(C#N)CCC(C(=O)O)CC2)cc1OC1CCCC1 (configuration not stated) | 123 | 
69 | Cl.Cl.Cl.O[C@@H](COc1cccc2ncccc12)CN1CCN([C@@H]2c3ccccc3[C@@H]3[C@H](c4ccccc42)C3(F)F)CC1 | 70.9 | 
70 | COc1cc2cc(c1Cl)N(C)C(=O)C[C@H](OC(=O)C(C)C)[C@]1(C)O[C@@H]1[C@H](C)[C@@H]1C[C@@](O)(NC(=O)O1)[C@H](OC)/C=C/C=C(\C)C2 | 122 | 
71 | O=NN(CCCl)C(=O)NCCCl | 131 | 
72 | CN1CCN(c2cccc(Nc3nc4c(-c5ccc([S+](C)(=O)[O-])cc5)cccn4n3)c2)CC1 | 125 | 
73 | CCc1cc(Nc2nccc(-c3c(-c4ccc(OC)c(C(=O)Nc5c(F)cccc5F)c4)nc4ccccn34)n2)c(OC)cc1N1CCC(N2CCN([S+](C)(=O)[O-])CC2)CC1 | 122 | 
74 | C[C@]\12CCC(=O)\C=C1[C@@H]3C[C@@H]3[C@@H]4[C@@H]2CC[C@@]5(C)[C@H]4[C@@H]6C[C@@H]6[C@@]57CCC(=O)O7 | 89.8 | 
75 | CC1=C(CC(=O)O)c2cc(F)ccc2/C1=C\c1ccc([S+](C)[O-])cc1 (configuration not stated) | 59.8 | 
76 | C[C@@H]1CCN(C(=O)CC#N)C[C@@H]1N(C)c1ncnc2[nH]ccc12 | 79.1 | 
77 | Nc1cccc([S+](=O)([O-])N2CCCN([S+](=O)([O-])c3ccc4c(c3)OCCO4)CC2)c1 | 87 | 
78 | COC(=O)C1C2CC3c4[nH]c5cc(OC)ccc5c4CCN3CC2CC(OC(=O)c2cc(OC)c(OC)c(OC)c2)C1OC (configuration not stated) | 101 | 
79 | c1cc(-c2cnn3cc(-c4ccc(OCCN5CCCCC5)cc4)cnc23)ccn1 | 48.4 | 
80 | CCCCOCCOc1nc(-c2ccc(C(=O)O)c(F)c2)sc1C | 105 | 
81 | CN(C)CCOc1cc(-c2cn[nH]c2)ccc1NC(=O)C1COc2ccccc2O1 (configuration not stated) | 117 | 
82 | CN1CCN(c2ccc([N+](=O)[O-])c3no[n+]([O-])c23)CC1 | 108 | 
